Experimental data from ChEMBL document CHEMBL4152353, “Synthesis of DNA interactive C3-trans-cinnamide linked β-carboline conjugates as potential cytotoxic and DNA topoisomerase I inhibitors” (Bioorg Med Chem, 2018).
Blank lines part the entries; values can stand above or below the compound they belong to. Calls of active or inactive are those of the source. The rule behind the calls is not given here.

How the values were obtained:
A549 = assay: Cytotoxicity against human A549 cells after 48 hrs by MTT assay; format: functional, cell-based; details: A549, 48 h
NIH3T3 [1] = assay: Cytotoxicity against mouse NIH/3T3 cells after 48 hrs by MTT assay; format: cell-based; details: NIH3T3, 48 h
MCF7 [2] = assay: Cytotoxicity against human MCF7 cells after 48 hrs by MTT assay; format: functional, cell-based; details: MCF7, 48 h
B16 = assay: Cytotoxicity against mouse B16 cells after 48 hrs by MTT assay; format: functional, cell-based; details: B16, 48 h
HeLa = assay: Cytotoxicity against human HeLa cells after 48 hrs by MTT assay; format: functional, cell-based
Calf thymus DNA [3] = assay: Binding affinity to calf thymus DNA assessed as fluorescence quenching at 10 uM by spectrofluorimetric method; format: nucleic-acid assay; details: Bos taurus
MCF7 [4] = assay: Cell cycle arrest in human MCF7 cells assessed as accumulation at S-phase at 0.5 uM after 48 hrs by propidium iodide staining based flow cytometry (reference value: 15.64%); format: functional
NIH3T3 [5] = assay: Cytotoxicity against mouse NIH/3T3 cells assessed as cell death at 1 uM after 24 hrs by propidium iodide/Hoechst 33342 staining based fluorescence microscopic analysis; details: nih3t3, 24 h
MCF7 [6] = assay: Induction of apoptosis in human MCF7 cells assessed as necrotic cells at 0.5 uM after 48 hrs by Annexin-V-FITC/propidium iodide staining based flow cytometry (reference value: 3.67%); format: functional
MCF7 [7] = assay: Cell cycle arrest in human MCF7 cells assessed as accumulation at G1 phase at 0.5 uM after 48 hrs by propidium iodide staining based flow cytometry (reference value: 45.98%); format: functional
MCF7 [8] = assay: Induction of apoptosis in human MCF7 cells assessed as necrotic cells at 1 uM after 48 hrs by Annexin-V-FITC/propidium iodide staining based flow cytometry (reference value: 3.67%); format: functional
MCF7 [9] = assay: Cell cycle arrest in human MCF7 cells assessed as accumulation at G2/M-phase at 1 uM after 48 hrs by propidium iodide staining based flow cytometry (reference value: 33.65%); format: functional
Calf thymus DNA [10] = assay: Binding affinity to calf thymus DNA assessed as increase in viscosity at 15 uM by viscometric method; format: nucleic-acid assay; details: Bos taurus
MCF7 [11] = assay: Cell cycle arrest in human MCF7 cells assessed as accumulation at G1 phase at 1 uM after 48 hrs by propidium iodide staining based flow cytometry (reference value: 45.98%); format: functional
Calf thymus DNA [12] = assay: Binding affinity to calf thymus DNA assessed as hypochromic shift at 50 uM by UV-Vis absorption spectrophotometric method; format: nucleic-acid assay; details: Bos taurus
MCF7 [13] = assay: Induction of apoptosis in human MCF7 cells assessed as early apoptotic cells at 0.5 uM after 48 hrs by Annexin-V-FITC/propidium iodide staining based flow cytometry (reference value: 0.09%); format: functional
MCF7 [14] = assay: Cytotoxicity against human MCF7 cells assessed as cell death at 1 uM after 24 hrs by propidium iodide/Hoechst 33342 staining based fluorescence microscopic analysis; format: functional
Calf thymus DNA [15] = assay: Binding affinity to calf thymus DNA assessed as DNA winding at 1:1 to 1:2 ratio of DNA to compound by circular dichroism analysis; format: nucleic-acid assay; details: Bos taurus
MCF7 [16] = assay: Induction of apoptosis in human MCF7 cells assessed as early apoptotic cells at 1 uM after 48 hrs by Annexin-V-FITC/propidium iodide staining based flow cytometry (reference value: 0.09%); format: functional
MCF7 [17] = assay: Cell cycle arrest in human MCF7 cells assessed as accumulation at S-phase at 1 uM after 48 hrs by propidium iodide staining based flow cytometry (reference value: 15.64%); format: functional
MCF7 [18] = assay: Induction of apoptosis in human MCF7 cells assessed as viable cells at 0.5 uM after 48 hrs by Annexin-V-FITC/propidium iodide staining based flow cytometry (reference value: 96.18%); format: functional; details: MCF7, 48 h, read-out: Activity
MCF7 [19] = assay: Induction of apoptosis in human MCF7 cells assessed as DNA fragmentation at 1 uM after 48 hrs by Hoechst 33342 staining based confocal microscopic analysis; format: functional, cell-based
MCF7 [20] = assay: Induction of apoptosis in human MCF7 cells assessed as late apoptotic cells at 1 uM after 48 hrs by Annexin-V-FITC/propidium iodide staining based flow cytometry (reference value: 0.06%); format: functional
Topoisomerase I = target: T1, Topoisomerase I (Bos taurus, UniProt Q2HPH0); assay: Inhibition of calf thymus topoisomerase 1-mediated relaxation of supercoiled pBR322 DNA measured after 30 mins by agarose gel electrophoresis method
T1 sequence (Q2HPH0 whole entry): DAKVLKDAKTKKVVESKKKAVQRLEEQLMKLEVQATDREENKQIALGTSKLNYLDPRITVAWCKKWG

MCF7 [21] = assay: Induction of apoptosis in human MCF7 cells assessed as increase in number of wrinkled cells at 1 uM after 48 hrs by Hoechst 33342 staining based confocal microscopic analysis; format: functional, cell-based
MCF7 [22] = assay: Induction of apoptosis in human MCF7 cells assessed as late apoptotic cells at 0.5 uM after 48 hrs by Annexin-V-FITC/propidium iodide staining based flow cytometry (reference value: 0.06%); format: functional
MCF7 [23] = assay: Induction of apoptosis in human MCF7 cells assessed as viable cells at 1 uM after 48 hrs by Annexin-V-FITC/propidium iodide staining based flow cytometry (reference value: 96.18%); format: functional; details: MCF7, 48 h, read-out: Activity
Calf thymus DNA [24] = assay: Binding affinity to calf thymus DNA at 50 uM by UV-Vis absorption spectrophotometric method; format: nucleic-acid assay; details: Bos taurus
MCF7 [25] = assay: Cell cycle arrest in human MCF7 cells assessed as accumulation at G2/M-phase at 0.5 uM after 48 hrs by propidium iodide staining based flow cytometry (reference value: 33.65%); format: functional
MCF7 [26] = assay: Cell cycle arrest in human MCF7 cells assessed as accumulation at subG1 phase at 0.5 uM after 48 hrs by propidium iodide staining based flow cytometry (reference value: 3.04%); format: functional
Calf thymus DNA [27] = assay: Binding affinity to calf thymus DNA assessed as maximum absorption peak at 50 uM by UV-Vis absorption spectrophotometric method; format: nucleic-acid assay; details: Bos taurus
MCF7 [28] = assay: Cell cycle arrest in human MCF7 cells assessed as accumulation at subG1 phase at 1 uM after 48 hrs by propidium iodide staining based flow cytometry (reference value: 3.04%); format: functional

SMILES: COc1ccc(-c2nc(CNC(=O)/C=C/c3cc(F)cc(F)c3)cc3c2[nH]c2ccccc23)cc1
IC50 (A549): 0.02 µM
IC50 (NIH3T3 [1]): 0.0375 µM
IC50 (MCF7 [2]): 0.0172 µM
IC50 (B16): 0.0239 µM
IC50 (HeLa): 0.0246 µM

SMILES: COc1cc(/C=C/C(=O)NCc2cc3c([nH]c4ccccc43)c(-c3cccc(F)c3)n2)cc(OC)c1OC
IC50 (A549): 0.0179 µM
IC50 (NIH3T3 [1]): 0.036 µM
IC50 (MCF7 [2]): 0.0162 µM
IC50 (B16): 0.0198 µM
IC50 (HeLa): 0.023 µM

SMILES: COc1ccc(-c2nc(CNC(=O)/C=C/c3cc(OC)ccc3OC)cc3c2[nH]c2ccccc23)cc1
IC50 (A549): 0.0189 µM
IC50 (NIH3T3 [1]): 0.0344 µM
IC50 (MCF7 [2]): 0.0165 µM
IC50 (B16): 0.0221 µM
IC50 (HeLa): 0.0254 µM

SMILES: C=CCNC(=O)/C=C/c1cccc(O)c1
IC50 (A549): > 50 µM
IC50 (NIH3T3 [1]): > 50 µM
IC50 (MCF7 [2]): > 50 µM
IC50 (HeLa): > 50 µM

SMILES: COc1ccc(-c2nc(CNC(=O)/C=C/c3ccc(F)cc3)cc3c2[nH]c2ccccc23)cc1
IC50 (A549): 0.0202 µM
IC50 (NIH3T3 [1]): 0.0369 µM
IC50 (MCF7 [2]): 0.0182 µM
IC50 (B16): 0.0219 µM
IC50 (HeLa): 0.0228 µM

SMILES: O=C(/C=C/c1ccc(Cl)cc1)NCc1cc2c([nH]c3ccccc32)c(-c2cccc(F)c2)n1
IC50 (A549): 0.0196 µM
IC50 (NIH3T3 [1]): 0.0437 µM
IC50 (MCF7 [2]): 0.0183 µM
IC50 (B16): 0.0182 µM
IC50 (HeLa): 0.0192 µM

SMILES: COc1cc(/C=C/C(=O)NCc2cc3c([nH]c4ccccc43)c(-c3cc(OC)c(OC)c(OC)c3)n2)ccc1O
IC50 (A549): 0.0183 µM
IC50 (NIH3T3 [1]): 0.0431 µM
IC50 (MCF7 [2]): 0.0175 µM
IC50 (B16): 0.019 µM
IC50 (HeLa): 0.026 µM

SMILES: COc1cc(-c2nc(CNC(=O)/C=C/c3ccc(F)cc3)cc3c2[nH]c2ccccc23)cc(OC)c1OC
IC50 (A549): 0.0187 µM
IC50 (NIH3T3 [1]): 0.043 µM
IC50 (MCF7 [2]): 0.0164 µM
IC50 (B16): 0.0173 µM
IC50 (HeLa): 0.02 µM

SMILES: COc1cc(-c2nc(CNC(=O)/C=C/c3cccc(O)c3)cc3c2[nH]c2ccccc23)cc(OC)c1OC
IC50 (A549): 0.0195 µM
IC50 (NIH3T3 [1]): 0.0382 µM
IC50 (MCF7 [2]): 0.0168 µM
IC50 (B16): 0.0218 µM
IC50 (HeLa): 0.0236 µM

Activity (Calf thymus DNA [3]): Active
Activity (Calf thymus DNA [10]): Active
Activity (Calf thymus DNA [12]): inactive
Activity (Calf thymus DNA [15]): Active
IC50 (Topoisomerase I): 0.014 µM
K (Calf thymus DNA [24]): 1 ×10³ /M
Activity (Calf thymus DNA [27]): 287 to 369 nm
SMILES: COc1ccc(-c2nc(CNC(=O)/C=C/c3cccc(O)c3)cc3c2[nH]c2ccccc23)cc1
IC50 (A549): 0.0189 µM
Activity (MCF7 [4]): 16.81%
Activity (NIH3T3 [5]): Non-Toxic
Activity (MCF7 [6]): 6.45%
Activity (MCF7 [7]): 46.11%
Activity (MCF7 [8]): 9.55%
Activity (MCF7 [9]): 39.25%
Activity (MCF7 [11]): 40.12%
IC50 (NIH3T3 [1]): 0.0372 µM
Activity (MCF7 [13]): 9.75%
Activity (MCF7 [14]): Active
IC50 (MCF7 [2]): 0.0138 µM
Activity (MCF7 [16]): 9.46%
Activity (MCF7 [17]): 16.29%
viability at 0.5 µM (MCF7 [18]): 81.3%
Activity (MCF7 [19]): Active
IC50 (B16): 0.0163 µM
Activity (MCF7 [20]): 3.69%
Activity (MCF7 [21]): Active
Activity (MCF7 [22]): 2.5%
viability at 1 µM (MCF7 [23]): 77.3%
IC50 (HeLa): 0.0223 µM
Activity (MCF7 [25]): 32.46%
Activity (MCF7 [26]): 4.61%
Activity (MCF7 [28]): 4.32%

SMILES: COc1ccc(OC)c(/C=C/C(=O)NCc2cc3c([nH]c4ccccc43)c(-c3cc(OC)c(OC)c(OC)c3)n2)c1
IC50 (A549): 0.0188 µM
IC50 (NIH3T3 [1]): 0.039 µM
IC50 (MCF7 [2]): 0.0172 µM
IC50 (B16): 0.0192 µM
IC50 (HeLa): 0.0251 µM

SMILES: COc1ccc(-c2nc(CNC(=O)/C=C/c3ccc(O)c(OC)c3)cc3c2[nH]c2ccccc23)cc1
IC50 (A549): 0.0212 µM
IC50 (NIH3T3 [1]): 0.0399 µM
IC50 (MCF7 [2]): 0.0172 µM
IC50 (B16): 0.0198 µM
IC50 (HeLa): 0.0249 µM

SMILES: C/C=C/C(=O)NCc1cc2c([nH]c3ccccc32)c(-c2ccc(OC)cc2)n1
IC50 (A549): 3.36 µM
IC50 (NIH3T3 [1]): 2.67 µM
IC50 (MCF7 [2]): 10.8 µM
IC50 (HeLa): 5.41 µM

SMILES: COc1ccc(-c2nc(CNC(=O)CCCl)cc3c2[nH]c2ccccc23)cc1
IC50 (A549): > 50 µM
IC50 (NIH3T3 [1]): > 50 µM
IC50 (MCF7 [2]): > 50 µM
IC50 (HeLa): > 50 µM
